# From publication PMC2186054 (The Journal of Experimental Medicine, 1981)
# “And” between values parts separate entries of the source, which are not always exact repeats. Equal values may be shown once.
# Experiments:
# [1] = test system: myeloma protein CAL20 TEPC1035; assay: Quantitative precipitin inhibition assay, CAL20 TEPC1035 with dextran B1498S; assay type: binding, murine; settings: for Relative potency: Table II, maltose = 1.0
# myeloma protein MOPC104E [2] = molecular target: T1, myeloma protein MOPC104E (Mus musculus, UniProt P01724+P01756); assay: Quantitative precipitin inhibition assay, MOPC104E; assay type: binding, BALB/c mouse; settings: 25 µg dextran B1498S
# T1 sequence (P01756 whole entry): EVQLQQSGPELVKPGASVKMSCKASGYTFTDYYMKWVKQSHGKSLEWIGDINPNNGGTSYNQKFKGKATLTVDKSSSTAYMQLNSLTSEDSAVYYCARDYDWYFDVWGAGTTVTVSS
# T1 sequence (P01724 20-129): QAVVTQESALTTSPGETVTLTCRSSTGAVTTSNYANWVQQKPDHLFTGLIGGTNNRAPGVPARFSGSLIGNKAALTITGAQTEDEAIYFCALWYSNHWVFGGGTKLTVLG
# [3] = test system: serum 895 (anti-panosyl-α(1→4)DGlc); assay: Quantitative precipitin assay with antiserum 895; assay type: binding, Rabbit; settings: 80 µl undiluted serum, total vol 400 µl
# myeloma protein J558 [4] = molecular target: T2, myeloma protein J558 (Mus musculus, UniProt P01724+P01757); assay: Quantitative precipitin assay with J558; assay type: binding, BALB/c mouse; settings: Table I; total vol 400 µl
# T2 sequence (P01757 whole entry): as the sequence (P01756 whole entry) above, with Y100R, D101Y counted along it
# T2 sequence (P01724 20-129): as the sequence (P01724 20-129) above
# [5] = test system: myeloma protein CAL20 TEPC1035; assay: Quantitative precipitin assay with CAL20 TEPC1035; assay type: binding, murine; settings: Table I; 6.5 µg antibody N, total vol 400 µl
# myeloma protein MOPC104E [6] = molecular target: T1, myeloma protein MOPC104E; settings: cited from earlier work
# myeloma protein J558 [7] = molecular target: T2, myeloma protein J558; assay: Quantitative precipitin inhibition assay, J558; assay type: binding, BALB/c mouse; settings: at 0.99 µmol; 15 µg dextran B1498S
# myeloma protein UPC102 = assay: Quantitative precipitin inhibition assay, UPC102; assay type: binding, BALB/c mouse; settings: at 0.52 µmol; 15 µg dextran B1355S
# [8] = inhibition of CAL20 TEPC1035-dextran B1498S precipitation
compound,measurement,setting,value
"OC[C@H]1O[C@H](O[C@H]2C(O)O[C@H](CO)[C@@H](O)[C@@H]2O)[C@H](O)[C@@H](O)[C@@H]1O (stereo partly shown) [Kojibiose, DGlcα(1→2)DGlc]",inhibition of precipitation,[1]; at 0.98 µmol,20%
"OC[C@H]1O[C@H](OC[C@H]2O[C@H](OC[C@H]3O[C@H](OC[C@H]4O[C@H](OC[C@H]5OC(O)[C@H](O)[C@@H](O)[C@@H]5O)[C@H](O)[C@@H](O)[C@@H]4O)[C@H](O)[C@@H](O)[C@@H]3O)[C@H](O)[C@@H](O)[C@@H]2O)[C@H](O)[C@@H](O)[C@@H]1O (stereo partly shown) [Isomaltopentaose, isomaltopentaose]",inhibition of precipitation,[1]; at 0.5 µmol,44%
same,inhibition of precipitation,[1]; at 0.59 µmol (Table II),44%
34-a-u-glucosylisomaltohexaose [I/5],inhibition of precipitation,[1]; at 0.15 µmol,47%
"OC[C@H]1O[C@H](OC[C@H]2O[C@H](OC[C@H]3O[C@H](OC[C@H]4O[C@H](OC[C@H]5O[C@H](OC[C@H]6OC(O)[C@H](O)[C@@H](O)[C@@H]6O)[C@H](O)[C@@H](O)[C@@H]5O)[C@H](O)[C@@H](O)[C@@H]4O)[C@H](O)[C@@H](O)[C@@H]3O)[C@H](O)[C@@H](O)[C@@H]2O)[C@H](O)[C@@H](O)[C@@H]1O (stereo partly shown) [Isomaltohexaose, isomaltohexaose]",inhibition of precipitation,[1]; at 0.41 µmol,20%
"OC[C@H]1O[C@H](O[C@H]2[C@H](O)[C@@H](CO)OC(O)[C@@H]2O)[C@H](O)[C@@H](O)[C@@H]1O (stereo partly shown) [Nigerose, nigerose]",inhibition of precipitation of MOPC104E,myeloma protein MOPC104E [2]; at 0.9 µmol,25%
same,Relative potency,[1],0.35
same,activity relative to methyl α-D-glucoside,[1]; [8],equally
Pullulan,Precipitation with serum 895,[3],precipitated poorly
same,Precipitating power with J558,myeloma protein J558 [4],-
same,Precipitating power with CAL20 TEPC1035,[5],-
"CC(=O)OC[C@@H](O)[C@@H](O)[C@H](O)[C@@H](O)C=O [6-O-acetyl-glucose, 6-O-acetyl-glucose]",Relative potency,[1],0.14
maltopentaose,Relative potency,[1],1.41
"OC[C@H]1O[C@H](OC[C@H]2O[C@H](OC[C@H]3O[C@H](OC[C@H]4O[C@H](OC[C@H]5OC(O)[C@H](O)[C@@H](O)[C@@H]5O)[C@H](O)[C@@H](O)[C@@H]4O)[C@H](O)[C@@H](O)[C@@H]3O[C@H]3O[C@H](CO)[C@@H](O)[C@H](O)[C@H]3O)[C@H](O)[C@@H](O)[C@@H]2O)[C@H](O)[C@@H](O)[C@@H]1O (stereo partly shown) [II/3, 43-a-v-glucosylisomaltopen taose]",Relative potency,[1],0.8
Gentiobiose,Relative potency,[1],0.12
maltoheptaose,Relative potency,[1],2.4
"OC[C@H]1O[C@H](OC[C@H]2O[C@H](OC[C@H]3O[C@H](OC[C@H]4O[C@H](OC[C@H]5O[C@H](OC[C@H]6O[C@H](OC[C@H]7OC(O)[C@H](O)[C@@H](O)[C@@H]7O)[C@H](O)[C@@H](O)[C@@H]6O)[C@H](O)[C@@H](O)[C@@H]5O)[C@H](O)[C@@H](O)[C@@H]4O)[C@H](O)[C@@H](O)[C@@H]3O)[C@H](O)[C@@H](O)[C@@H]2O)[C@H](O)[C@@H](O)[C@@H]1O (stereo partly shown) [Isomaltoheptaose, isomaltoheptaose]",inhibition of precipitation,[1]; at 0.4 µmol,35%
nigerohexa-heptaose,Relative potency,[1],0.33
"OC[C@H]1O[C@H](O[C@@H]2[C@@H](O)[C@@H](O[C@@H]3[C@@H](O)[C@@H](O[C@H]4[C@H](O)[C@@H](CO)OC(O)[C@@H]4O)O[C@H](CO)[C@H]3O)O[C@H](CO)[C@H]2O)[C@H](O)[C@@H](O)[C@@H]1O (stereo partly shown) [Nigerotetraose, nigerotetraose]",inhibition of precipitation of MOPC104E,myeloma protein MOPC104E [2]; at 0.82 µmol,75%
same,Relative potency,[1],0.29
OC[C@H]1O[C@H](O[C@H]2[C@@H](OC[C@H]3OC(O)[C@H](O)[C@@H](O)[C@@H]3O)O[C@H](CO)[C@@H](O)[C@@H]2O)[C@H](O)[C@@H](O)[C@@H]1O (stereo partly shown) [DGlcα(1→2)DGlcα(1→6)DGlc],inhibition of precipitation,[1]; at 0.36 µmol,15%
"OC[C@H]1O[C@H](O[C@H]2O[C@H](CO)[C@@H](O)[C@H](O)[C@H]2O)[C@H](O)[C@@H](O)[C@@H]1O [Trehalose, DGlcα(1→1)DGlc]",inhibition of precipitation,[1]; at 1.1 µmol,No inhibition
maltohexaose,Relative potency,[1],2.4
maltotriose,Relative potency,[1],1.0
"OC[C@H]1O[C@H](O[C@H]2[C@H](O)[C@@H](O)[C@@H](OC[C@H]3O[C@H](O[C@H]4[C@H](O)[C@@H](O)[C@@H](O[C@H]5[C@H](O)[C@@H](O)[C@@H](OC[C@H]6OC(O)[C@H](O)[C@@H](O)[C@@H]6O)O[C@@H]5CO)O[C@@H]4CO)[C@H](O)[C@@H](O)[C@@H]3O)O[C@@H]2CO)[C@H](O)[C@@H](O)[C@@H]1O (stereo partly shown) [Isopanosylα(1→4)isopanose, DGlcα(1→4)DGlcα(1→6)DGlcα(1→4)DGlcα(1→4)DGlcα(1→6)DGlc]",Relative potency,[1],1.0
same,times more potent than isopanose,[1]; [8],2.85 times
"OC[C@H]1O[C@H](O[C@@H]2[C@@H](O)[C@@H](O[C@H]3[C@H](O)[C@@H](CO)OC(O)[C@@H]3O)O[C@H](CO)[C@H]2O)[C@H](O)[C@@H](O)[C@@H]1O (stereo partly shown) [Nigerotriose, nigerotriose]",Relative potency,[1],0.29
Glycogen,Precipitation with serum 895,[3],precipitated poorly
same,Precipitating power with J558,myeloma protein J558 [4],-
same,Precipitating power with CAL20 TEPC1035,[5],-
OC[C@H]1O[C@H](OC[C@H]2O[C@H](O[C@H]3[C@H](O)[C@@H](O)C(O)O[C@@H]3CO)[C@H](O)[C@@H](O)[C@@H]2O)[C@H](O)[C@@H](O)[C@@H]1O (stereo partly shown) [Panose],inhibition of precipitation of MOPC104E,myeloma protein MOPC104E [2]; up to 0.99 µmol,no inhibition
same,relative potency at 50% inhibition relative to nigerose as 1.0 on a molar basis,myeloma protein MOPC104E [6],0.105
same,inhibition of precipitation of J558,myeloma protein J558 [7],15%
same,inhibition of precipitation of UPC102,myeloma protein UPC102,15%
same,Relative potency,[1],8.0
same,times more active than kojibiose,[1]; [8],> 42 times
same,times more potent than the tetrasaccharide DGlcα(1→6)DGlcα(1→4)DGlcα(1→4)DGlc,[1]; [8],3.3 times and 2.5 times
"OC[C@H]1O[C@H](OC[C@H]2OC(O)[C@H](O)[C@@H](O)[C@@H]2O)[C@H](O)[C@@H](O)[C@@H]1O (stereo partly shown) [Isomaltose, isomaltose]",Relative potency,[1],0.19
same,activity relative to methyl α-D-glucoside,[1]; [8],one-half
OC[C@H]1OC(O)[C@H](O)[C@@H](O)[C@@H]1O (stereo partly shown) [Glucose],inhibition of precipitation,[1]; at 0.2 µmol,22%
same,inhibition of precipitation,[1]; at 0.92 µmol (Table II),22%
OC[C@H]1O[C@H](OC[C@H]2O[C@H](O[C@H]3[C@H](O)[C@@H](CO)OC(O)[C@@H]3O)[C@H](O)[C@@H](O)[C@@H]2O)[C@H](O)[C@@H](O)[C@@H]1O (stereo partly shown) [DGlcα(1→6)DGlcα(1→3)DGlc],Relative potency,[1],1.6
"OC[C@H]1O[C@H](O[C@H]2[C@H](O)[C@@H](O)[C@@H](OC[C@H]3OC(O)[C@H](O)[C@@H](O)[C@@H]3O)O[C@@H]2CO)[C@H](O)[C@@H](O)[C@@H]1O (stereo partly shown) [Isopanose, DGlcα(1→4)DGlcα(1→6)DGlc]",Relative potency,[1],0.35
"OC[C@H]1O[C@H](O[C@H]2[C@H](O)[C@@H](O)C(O)O[C@@H]2CO)[C@H](O)[C@@H](O)[C@@H]1O (mixture of isomers) [Maltose, maltose]",Relative potency,[1],1.0
same,activity relative to methyl α-D-glucoside,[1]; [8],three times
"OC[C@H]1O[C@H](O[C@H]2[C@H](O)[C@@H](O)[C@@H](O[C@H]3[C@H](O)[C@@H](O)[C@@H](O[C@H]4[C@H](O)[C@@H](O)C(O)O[C@@H]4CO)O[C@@H]3CO)O[C@@H]2CO)[C@H](O)[C@@H](O)[C@@H]1O (stereo partly shown) [Maltotetraose, maltotetraose]",Relative potency,[1],1.0
"OC[C@H]1O[C@H](O[C@@H]2[C@@H](O)[C@@H](O[C@@H]3[C@@H](O)[C@@H](O[C@@H]4[C@@H](O)[C@@H](O[C@H]5[C@H](O)[C@@H](CO)OC(O)[C@@H]5O)O[C@H](CO)[C@H]4O)O[C@H](CO)[C@H]3O)O[C@H](CO)[C@H]2O)[C@H](O)[C@@H](O)[C@@H]1O (stereo partly shown) [Nigeropentaose, nigeropentaose]",Relative potency,[1],0.29
"OC[C@H]1O[C@H](OC[C@H]2O[C@H](OC[C@H]3OC(O)[C@H](O)[C@@H](O)[C@@H]3O)[C@H](O)[C@@H](O)[C@@H]2O)[C@H](O)[C@@H](O)[C@@H]1O (stereo partly shown) [Isomaltotriose, isomaltotriose]",Relative potency,[1],0.20
"O=C[C@H](O)[C@@H](O)[C@H](O[C@@H]1O[C@H](CO)[C@@H](O)[C@H](O)[C@H]1O)[C@H](O)CO [Cellobiose, DGlcβ(1→4)DGlc]",Relative potency,[1],0.24
OC[C@H]1O[C@H](OC[C@H]2O[C@H](O[C@H]3[C@H](O)[C@@H](O)[C@@H](O[C@H]4[C@H](O)[C@@H](O)C(O)O[C@@H]4CO)O[C@@H]3CO)[C@H](O)[C@@H](O)[C@@H]2O)[C@H](O)[C@@H](O)[C@@H]1O (stereo partly shown) [DGlcα(1→6)DGlcα(1→4)DGlcα(1→4)DGlc],Relative potency,[1],2.4
same,times more potent than the trisaccharide DGlcα(1→6)DGlcα(1→3)DGlc,[1]; [8],1.5 times
OC[C@H]1O[C@H](O[C@@H]2[C@@H](O)[C@@H](OC[C@H]3OC(O)[C@H](O)[C@@H](O)[C@@H]3O)O[C@H](CO)[C@H]2O)[C@H](O)[C@@H](O)[C@@H]1O (stereo partly shown) [DGlcα(1→3)DGlcα(1→6)DGlc],inhibition of precipitation,[1]; at 0.16 µmol,40%
